pEC50: −log10 of the molar value. Where a name gives a salt, the structure may show the parent alone.
Tests used:
human H4 = molecular target: T1, human H4 (Homo sapiens, UniProt Q9H3N8); experiment: In vitro histamine receptor cell-based assay (aequorin bioluminescence), H4 antagonism; settings: CHO-K1 cells expressing human H4, aequorin and Gα16; histamine at EC80; read-out: H4 Antagonist EC50
T1 construct: host or cells: CHO-K1
Procedure, shortened: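 CHO-K1 cells stably expressing human H4, Gα16 and mitochondrial aequorin, loaded with 5 μM coelenterazine-h, preincubated 15 min at room temperature with compound, then challenged with histamine at EC80.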

human H1 = molecular target: T2, human H1 (Homo sapiens, UniProt P35367); experiment: In vitro histamine receptor cell-based assay (aequorin bioluminescence), H1 antagonism; settings: CHO-K1 cells expressing human H1 and aequorin; histamine at EC80; read-out: H1 Antagonist EC50
T2 construct: host or cells: CHO-K1
Procedure, shortened: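 Stable CHO-K1 lines expressing human H1 or H4 (H4 with Gα16) plus mitochondrial aequorin, loaded 4 h with 5 μM coelenterazine-h at ~21 °C. Compounds preincubated 15 min, then histamine at EC80 added; bioluminescence decrease (AUC or max–min) expressed as % of positive control (diphenhydramine for H1, JNJ7777120 for H4, 10 μM).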

T2 sequence (P35367 whole entry): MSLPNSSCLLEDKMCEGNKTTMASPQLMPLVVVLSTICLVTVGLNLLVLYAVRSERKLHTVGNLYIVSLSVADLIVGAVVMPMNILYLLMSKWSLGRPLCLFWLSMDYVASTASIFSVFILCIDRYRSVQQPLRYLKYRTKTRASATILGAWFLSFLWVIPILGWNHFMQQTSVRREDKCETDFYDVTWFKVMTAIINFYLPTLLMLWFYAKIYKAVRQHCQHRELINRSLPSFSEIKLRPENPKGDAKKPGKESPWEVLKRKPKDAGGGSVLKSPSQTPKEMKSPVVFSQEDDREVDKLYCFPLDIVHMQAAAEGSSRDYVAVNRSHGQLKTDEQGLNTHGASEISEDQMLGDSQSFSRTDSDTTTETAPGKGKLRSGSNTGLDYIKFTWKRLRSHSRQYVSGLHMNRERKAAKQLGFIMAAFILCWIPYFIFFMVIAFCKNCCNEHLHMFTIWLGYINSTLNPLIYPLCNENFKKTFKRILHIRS

| Compound | pEC50 (human H4) | pEC50 (human H1) |
| --- | --- | --- |
| Cc1nc2c3cc(C(F)(F)F)c(Cl)cc3nc(N3CCNCC3)n2n1 [Example 123, 8-chloro-2-methyl-5-(piperazin-1-yl)-9-(trifluoromethyl)-[1,2,4]triazolo[1,5-c]quinazoline] | > 5.00 | < 5.00 |
| Cc1nc2c3cc(C(F)(F)F)cc(F)c3nc(N3CCNCC3)n2n1 [Example 128, 7-fluoro-2-methyl-5-(piperazin-1-yl)-9-(trifluoromethyl)-[1,2,4]triazolo[1,5-c]quinazoline hydrochloride] | > 5.00 | < 5.00 |
| Cc1nc2c3cc(F)c(C(F)(F)F)cc3nc(N3CCNCC3)n2n1 [Example 130, 9-fluoro-2-methyl-5-(piperazin-1-yl)-8-(trifluoromethyl)-[1,2,4]triazolo[1,5-c]quinazoline hydrochloride] | > 5.00 | < 5.00 |
| Cc1nc2c3cc(Cl)c(C(F)(F)F)cc3nc(N3CCN(C)CC3)n2n1 [Example 131, 9-chloro-2-methyl-5-(4-methylpiperazin-1-yl)-8-(trifluoromethyl)-[1,2,4]triazolo[1,5-c]quinazoline hydrochloride] | > 5.00 | < 5.00 |
| Cc1nc2c3cc(Cl)c(C(F)(F)F)cc3nc(N3CCNCC3)n2n1 [Example 132, 9-chloro-2-methyl-5-(piperazin-1-yl)-8-(trifluoromethyl)-[1,2,4]triazolo[1,5-c]quinazoline hydrochloride] | > 5.00 | < 5.00 |
| Cc1nc2c3cc(OC(F)(F)F)ccc3nc(N3CCNCC3)n2n1 [Example 134, 2-methyl-5-(piperazin-1-yl)-9-(trifluoromethoxy)-[1,2,4]triazolo[1,5-c]quinazoline hydrochloride] | > 5.00 | < 5.00 |
| C=Cc1ccc2nc(N3CCNCC3)n3nc(C)nc3c2c1 [Example 138, 2-methyl-5-(piperazin-1-yl)-9-vinyl-[1,2,4]triazolo[1,5-c]quinazoline] | > 5.00 | < 5.00 |
| CCc1ccc2nc(N3CCNCC3)n3nc(C)nc3c2c1 [Example 140, 9-ethyl-2-methyl-5-(piperazin-1-yl)-[1,2,4]triazolo[1,5-c]quinazoline] | > 5.00 | < 5.00 |
| Clc1ccc2nc(N3CCNCC3)c3ncoc3c2c1 [Example 142, 8-Chloro-4-piperazinyl-1,3-oxazolo[4,5-c]quinoline] | > 5.00 | < 5.00 |
| Cc1nc2c(N3CCNCC3)nc3ccc(Cl)cc3c2o1 [Example 144, 8-chloro-2-methyl-4-(piperazin-1-yl)oxazolo[4,5-c]quinoline] | > 5.00 | < 5.00 |
| Cc1nc2c(N3CCNCC3)nc3cc(F)c(F)cc3c2o1 [Example 146, 7,8-difluoro-2-methyl-4-(piperazin-1-yl)oxazolo[4,5-c]quinoline] | > 5.00 | > 5.00 |
| CN1CCN(c2nc3ccc(Cl)cc3c3ccoc23)CC1 [Example 147, 8-Chloro-4-(4-methylpiperazin-1-yl)furo[2,3-c]quinoline] | > 5.00 | < 5.00 |
| Clc1ccc2nc(N3CCNCC3)c3occc3c2c1 [Example 148, 8-Chloro-4-(piperazin-1-yl)furo[2,3-c]quinoline] | > 5.00 | < 5.00 |
| CN1CCN(c2nc3ccc(Cl)cc3c3ccsc23)CC1 [Example 149, 8-Chloro-4-(4-methylpiperazin-1-yl)thieno[2,3-c]quinoline] | > 5.00 | > 5.00 |
| Cn1cc2c(n1)c(N1CCNCC1)nc1ccc(Cl)cc12 [Example 151, 8-Chloro-2-methyl-4-(piperazin-1-yl)-2H-pyrazolo[3,4-c]quinoline] | > 5.00 | > 5.00 |
| Cn1cc2c(n1)c(N1CC[N+](C)(C)CC1)nc1ccc(Cl)cc12 [Example 154, 4-(8-Chloro-2-methyl-2H-pyrazolo[3,4-c]quinolin-4-yl)-1,1-dimethylpiperazin-1-ium] | < 5.00 | < 5.00 |
| Cn1cc2c(n1)c(N1CCNCC1)nc1ccc(C(F)(F)F)cc12 [Example 156, 2-Methyl-4-piperazinyl-8-(trifluoromethyl)pyrazolo[3,4-c]quinoline HCl salt] | > 5.00 | > 5.00 |
| CN1CCN(c2nc3ccc(C(F)(F)F)cc3c3c[nH]nc23)CC1 [Example 157, 4-(4-Methylpiperazinyl)-8-(trifluoromethyl)pyrazolo[3,4-c]quinoline] | > 5.00 | < 5.00 |
| Cn1cnc2c(N3CCNCC3)nc3ccc(Cl)cc3c21 [Example 158, 8-Chloro-1-methyl-4-(piperazin-1-yl)-1H-imidazo[4,5-c]quinoline] | < 5.00 | < 5.00 |
| Cc1nc2c(N3CCN(C)CC3)nc3ccc(Cl)cc3c2[nH]1 [Example 162, 8-Chloro-2-methyl-4-(4-methylpiperazinyl)imidazo[4,5-c]quinoline] | < 5.00 | < 5.00 |
| Cc1nc2c(N3CCNCC3)nc3ccc(Cl)cc3c2[nH]1 [Example 163, 8-Chloro-2-methyl-4-piperazinylimidazo[4,5-c]quinoline] | < 5.00 | < 5.00 |
| Cc1nc2c(N3CCNCC3)nc3ccc(Cl)cc3n2n1 [Example 164, 8-chloro-2-methyl-4-(piperazin-1-yl)-[1,2,4]triazolo[1,5-a]quinoxaline] | > 5.00 | < 5.00 |
| Clc1ccc2nc(N3CCNCC3)c3nocc3c2c1 [Example 167, 8-Chloro-4-(piperazin-1-yl)isoxazolo[3,4-c]quinoline] | > 5.00 | > 5.00 |
| Fc1c(C(F)(F)F)ccc2nc(N3CCNCC3)c3nncn3c12 [Example 169, 9-fluoro-4-(piperazin-1-yl)-8-(trifluoromethyl)-[1,2,4]triazolo[4,3-a]quinoxaline] | > 5.00 | < 5.00 |
| Fc1c(C(F)(F)F)ccc2nc(N3CCNCC3)c3nnnn3c12 [Example 172, 9-fluoro-4-(piperazin-1-yl)-8-(trifluoromethyl)tetrazolo[1,5-a]quinoxaline] | > 5.00 | < 5.00 |
| FC(F)(F)c1ccc2nc(N3CCNCC3)c3nccn3c2c1 [Example 178, 4-(piperazin-1-yl)-8-(trifluoromethypimidazo[1,2-a]quinoxaline hydrochloride] | > 5.00 | < 5.00 |
| Fc1cc2nc(N3CCNCC3)c3nccn3c2cc1Cl [Example 180, 8-chloro-7-fluoro-4-(piperazin-1-yl)imidazo[1,2-a]quinoxaline] | > 5.00 | > 5.00 |

The remaining lines, values ahead:

| pEC50 (human H4) | pEC50 (human H1) | Compound |
| --- | --- | --- |
| > 5.00 | > 5.00 | Cc1nc2c3cc(Br)ccc3nc(N3CCN(C)CC3)n2n1 [Example 135, 9-bromo-2-methyl-5-(4-methylpiperazin-1-yl)-[1,2,4]triazolo[1,5-c]quinazoline] |
| > 5.00 | < 5.00 | C=Cc1ccc2nc(N3CCN(C)CC3)n3nc(C)nc3c2c1 [Example 137, 2-methyl-5-(4-methylpiperazin-1-yl)-9-vinyl-[1,2,4]triazolo[1,5-c]quinazoline] |
| > 5.00 | < 5.00 | CCc1ccc2nc(N3CCN(C)CC3)n3nc(C)nc3c2c1 [Example 139, 9-ethyl-2-methyl-5-(4-methylpiperazin-1-yl)-[1,2,4]triazolo[1,5-c]quinazoline] |
| > 5.00 | > 5.00 | CN1CCN(c2nc3ccc(Cl)cc3c3ocnc23)CC1 [Example 141, 8-chloro-4-(4-methylpiperazin-1-yl)oxazolo[4,5-c]quinoline] |
| > 5.00 | < 5.00 | CN1CCN(c2nc3ccc(C(F)(F)F)cc3c3cn(C)nc23)CC1 [Example 155, 2-Methyl-4-(4-methylpiperazinyl)-8-(trifluoromethyl)pyrazolo[3,4-c]quinoline] |
| > 5.00 | < 5.00 | CN1CCN(c2nc3ccc(Cl)cc3c3c2ncn3C)CC1 [Example 159, 8-Chloro-1-methyl-4-(4-methylpiperazin-1-yl)-1H-imidazo[4,5-c]quinoline] |
| > 5.00 | < 5.00 | Clc1cc2nc(N3CCNCC3)c3nncn3c2cc1Cl [Example 168, 7,8-dichloro-4-(piperazin-1-yl)-[1,2,4]triazolo[4,3-a]quinoxaline] |
| > 5.00 | < 5.00 | CN1CCN(c2nc3c(F)c(C(F)(F)F)ccc3n3cnnc23)CC1 [Example 170, 6-fluoro-4-(4-methylpiperazin-1-yl)-7-(trifluoromethyl)-[1,2,4]triazolo[4,3-a]quinoxaline] |
| > 5.00 | < 5.00 | CC(C)c1ccc2nc(N3CCN(C)CC3)c3nncn3c2c1 [Example 173, 8-isopropyl-4-(4-methylpiperazin-1-yl)-[1,2,4]triazolo[4,3-a]quinoxaline] |
| > 5.00 | < 5.00 | C/C=C/c1ccc2nc(N3CCN(C)CC3)c3nncn3c2c1 [Example 174, (E)-4-(4-methylpiperazin-1-yl)-8-(prop-1-enyl)-[1,2,4]triazolo[4,3-a]quinoxaline] |
| > 5.00 | < 5.00 | CCCc1ccc2nc(N3CCN(C)CC3)c3nncn3c2c1 [Example 175, 4-(4-methylpiperazin-1-yl)-8-propyl-[1,2,4]triazolo[4,3-a]quinoxaline] |
| < 5.00 | < 5.00 | CC(C)Nc1ccc2nc(N3CCN(C)CC3)c3nncn3c2c1 [Example 176, N-isopropyl-4-(4-methylpiperazin-1-yl)-[1,2,4]triazolo[4,3-a]quinoxalin-8-amine] |
| > 5.00 | < 5.00 | CN1CCN(c2nc3ccc(C(F)(F)F)cc3n3ccnc23)CC1 [Example 177] |
| > 5.00 | < 5.00 | CN1CCN(c2nc3cc(F)c(Cl)cc3n3ccnc23)CC1 [Example 179] |

Reference: patent publication US20120065187A1 (ALCON RESEARCH, LTD, priority 2008, published 2012)
